Data on 8 compounds can be found in patent publication US8835644B2, “Broad spectrum benzothiophene-nitrothiazolide and other antimicrobials” (University of Virginia Patent Foundation, priority 2009, dated 2014).

Test [1] concerns PFOR (pyruvate ferredoxin oxidoreductase). As to the kind of experiment: Direct PFOR enzyme assay. The test is classed as biochemical. The protocol:
Representative compounds of the invention were tested in a series of assays against a series of organisms as described above. […] The organisms tested include, C. difficile, H. pylori, C. jejuni, MRSA, S. epidermidis, and E. coli. S. epidermidis and E. coli were tested in the plank and biofilm assay. A disk diffusion assay was also used for C. difficile. Direct PFOR enzyme assays were also performed. All analogues and derivatives were not tested on every organism in every type of assay (the “-” in each table means that it was not tested).

The next test deals with C. jejuni. Kind of test: MIC testing by broth dilution, C. jejuni. The test is classed as cell-based, Campylobacter jejuni. The gist of the method: (§1)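 Twofold broth microdilution from 32 μg/ml down to 0.06, in LB for E. coli, Trypticase Soy for S. epidermidis (planktonic) and Brain Heart Infusion for C. jejuni. C. difficile: anaerobic disk diffusion on Wilkins Chalgrin agar, inhibition zone expressed as a ratio to the NTZ zone.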
(In broth dilution the organism is exposed to a series of concentrations in liquid medium.)

A further test relates to H. pylori. Kind of test: MIC testing by broth dilution, H. pylori. The test is classed as cell-based, Helicobacter pylori. Summed up: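 Broth dilution MIC determination against H. pylori: a standard inoculum in 100 microliters of Brain Heart Infusion medium was placed in 96 well microplates. Test compounds began at 32 μg/ml in 200 microliters in well one and were serially diluted over a 32 to 0.06 range. After 24 h, plates were scored by eye and the first well without growth was recorded as the MIC.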

In another test the test system is MRSA. Kind of test: MIC testing by broth dilution, MRSA. The test is classed as cell-based, Staphylococcus aureus. Summed up:
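Values are broth-dilution MICs, defined as the well showing no growth on visual reading after 24 h; the tested range was 32 to 0.06 μg/ml, in organism-specific media (LB, Trypticase Soy, Brain Heart Infusion). The C. difficile entries come instead from anaerobic Kirby-Bauer disk zones, normalised to NTZ.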

Another test concerns S. epidermidis. As to the kind of experiment: MIC testing by broth dilution, S. epidermidis plank. The test is classed as cell-based, Staphylococcus epidermidis. Summed up: as §1
The next test concerns C. difficile. Kind of test: Disk diffusion (Kirby Bower), C. difficile. The conditions noted are these: Nitazoxanide = 100; Thiophene analogues table. The test is classed as cell-based, Clostridium difficile. The gist of the method: as §1
A general note: A growth-free zone around the sample is the usual read-out of agar diffusion tests.

In the next test the test system is S. epidermidis biofilm. Kind of test: S. epidermidis biofilm assay (activity tables). The test is classed as cell-based, Staphylococcus epidermidis. The note with it: Thiophene analogues table. The gist of the method:
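Overnight TSB cultures diluted to OD600 0.01 and grown static with compound (triplicate) at 37° C for 16 h; turbidity recorded for growth. Biofilm: washed wells ethanol-fixed, stained with 0.5% crystal violet, A570 read before and after 95% ethanol extraction; mean ± SD.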

Another test concerns E. coli biofilm. As to the kind of experiment: E. coli biofilm assay (activity tables). The test is classed as cell-based, Escherichia coli. The note with it: Escherichia coli; biofilm; Thiophene analogues table; read-out: MIC E. coli Biofilm. Summed up:
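After 24 h static culture at 37 °C in wells containing NTZ, strain 042 (1:100 inoculum) biofilm was quantified by 0.5% crystal violet absorbance at 570 nm. Planktonic growth was taken from turbidity or LB plate counts as cfu/ml; all runs triplicate, reported as mean and SD.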

The subject of another test is E. coli. As to the kind of experiment: MIC testing by broth dilution, E. coli plank. The conditions noted are these: Escherichia coli. The test is classed as cell-based, Escherichia coli. Summed up:
as §1

[2] abbreviates: * biphasic initial inhibition followed by uninhibited rate, ** caused some precipitant in extract.
Where [3] appears, read: 2-amino-3,5-dinitrothiophene analogues table, read-out: MIC C. jejuni.
Where [4] appears, read: 2-amino-3,5-dinitrothiophene analogues table, read-out: MIC H. pylori.
The mark [5] stands for this setting: 2-amino-3,5-dinitrothiophene analogues table, read-out: MIC MRSA.
The mark [6] stands for this setting: planktonic, 2-amino-3,5-dinitrothiophene analogues table, read-out: MIC S. epidermidis Plank.
[7] abbreviates: Campylobacter jejuni, read-out: MIC C. jejuni.
The mark [8] stands for this setting: Helicobacter pylori, read-out: MIC H. pylori.
Where [9] appears, read: Staphylococcus aureus, MRSA, read-out: MIC MRSA.
Setting [10] is: Staphylococcus epidermidis, read-out: MIC S. epidermidis Plank.
[11] abbreviates: Campylobacter jejuni, 24 h, read-out: MIC (μM) C. jejuni.
Setting [12] is: Helicobacter pylori, 24 h, read-out: MIC (μM) H. pylori.
The mark [13] stands for this setting: Staphylococcus aureus, MRSA, 24 h, read-out: MIC (μM) MRSA.
Setting [14] is: Staphylococcus epidermidis, 24 h, read-out: MIC (μM) S. epidermidis Plank.

The structures appear in SMILES notation. Converted amounts (≈) assume the structure as drawn. Where a name gives a salt, the structure may show the parent alone. Read-outs that look alike come from different tables or passages of the source.

Consider `O=C(Nc1sc([N+](=O)[O-])cc1[N+](=O)[O-])c1ccc(Br)s1` [VPC16b2025], for which the “PFOR inhibition relative to nitazoxanide (=100)” value in test [1] (setting [2]) is recorded as 98** %. The MIC was 2.6 µM (≈ 0.983 µg/mL) with C. jejuni (setting [3]), 2.6 µM (≈ 0.983 µg/mL) in the test on H. pylori (setting [4]), 63.5 µM (≈ 24 µg/mL) in the test with MRSA (setting [5]) and 15.9 µM (≈ 6.01 µg/mL) in the test on S. epidermidis (setting [6]).
Regarding `O=C(Nc1sc([N+](=O)[O-])cc1[N+](=O)[O-])c1cc(C(F)(F)F)ccc1Cl` [VPC16b2026, 2-Chloro-N-(3,5-dinitrothiophen-2-yl)-5-(trifluoromethyl)benzamide], the “PFOR inhibition relative to nitazoxanide (=100)” value in [1] (setting [2]) was determined as 100%. In addition, the MIC came to 2.5 µM (≈ 0.989 µg/mL) in the test on C. jejuni (setting [7]), 0.8 µM (≈ 0.317 µg/mL) in the test with H. pylori (setting [8]), 30.3 µM (≈ 12 µg/mL) in the test with MRSA (setting [9]) and 15.2 µM (≈ 6.01 µg/mL) in the test with S. epidermidis (setting [10]).
Turning to `O=C(Nc1sc([N+](=O)[O-])cc1[N+](=O)[O-])c1cccc(C(F)(F)F)c1Cl` [VPC16b2028], in test [1] (setting [2]), the “PFOR inhibition relative to nitazoxanide (=100)” value was 113%. The MIC in the test with C. jejuni (setting [3]) is on record as 1.9 µM (≈ 0.752 µg/mL); with H. pylori (setting [4]) it was 0.8 µM (≈ 0.317 µg/mL); with MRSA (setting [5]), 30.3 µM (≈ 12 µg/mL); in the test with S. epidermidis (setting [6]), 30.3 µM (≈ 12 µg/mL).
Consider `NCCOc1ccccc1C(=O)Nc1sc([N+](=O)[O-])cc1[N+](=O)[O-]` [VPC16b2031, 2-(2-Aminoethoxy)-N-(3,5-dinitrothiophen-2-yl)benzamide], for which the “PFOR inhibition relative to nitazoxanide (=100)” value in test [1] (setting [2]) came to 162%. For the same compound, the MIC in the test on C. jejuni (setting [7]) turned out to be 1.3 µM (≈ 0.458 µg/mL); in the test on H. pylori (setting [8]), 1.9 µM (≈ 0.669 µg/mL); in the test with MRSA (setting [9]), 82.3 µM (≈ 29 µg/mL); in the test with S. epidermidis (setting [10]), 25.7 µM (≈ 9.05 µg/mL).
Consider `O=C(Nc1ncc([N+](=O)[O-])s1)c1ccc(Br)s1` [VPC161282, 5-Bromo-N-(5-nitrothiazol-2-yl)thiophene-2-carboxamide], for which the “Disk Diff (%) C. difficile” value in the test on C. difficile amounted to 90%. Further, the MIC was 9.9 µM (≈ 3.31 µg/mL) in the test with C. jejuni (Campylobacter jejuni, Thiophene analogues table, read-out: MIC C. jejuni); 3 µM (≈ 1 µg/mL) in the test on H. pylori (Helicobacter pylori, Thiophene analogues table, read-out: MIC H. pylori); 0.1 µM (≈ 0.0334 µg/mL) in the test on E. coli biofilm; 4.5 µM (≈ 1.5 µg/mL) in the test on MRSA (Staphylococcus aureus, MRSA, Thiophene analogues table, read-out: MIC MRSA); 23.9 µM (≈ 7.99 µg/mL) in the test with S. epidermidis (Staphylococcus epidermidis, planktonic, Thiophene analogues table, read-out: MIC S. epidermidis Plank); 95.8 µM (≈ 32 µg/mL) with E. coli (planktonic, Thiophene analogues table, read-out: MIC E. coli Plank). Besides, in the test with S. epidermidis biofilm, the “MIC S. epidermidis Biofilm” value was 47.9 µM (≈ 16 µg/mL).
Take `O=C(Nc1nc(Cl)c([N+](=O)[O-])s1)c1cccs1` [VPC162089, N-(4-Chloro-5-nitrothiazol-2-yl)thiophene-2-carboxamide]: the “PFOR inhibition relative to nitazoxanide (=100)” value in test [1] is on record as 93%. The MIC with C. jejuni (Campylobacter jejuni, broth dilution, Brain Heart Infusion, 24 h, read-out: MIC (μM) C. jejuni) stood at 13.8 µM (≈ 4 µg/mL); in the test with H. pylori (Helicobacter pylori, broth dilution, Brain Heart Infusion, 24 h, read-out: MIC (μM) H. pylori) it was 6.9 µM (≈ 2 µg/mL); in the test with MRSA (Staphylococcus aureus, MRSA, broth dilution, Trypticase Soy, 24 h, read-out: MIC (μM) MRSA) it was 110 µM (≈ 32 µg/mL); in the test with S. epidermidis (Staphylococcus epidermidis, broth dilution, Trypticase Soy, 24 h, read-out: MIC (μM) S. epidermidis Plank) it was 82.8 µM (≈ 24 µg/mL); in the test with E. coli (broth dilution, LB medium, 24 h, read-out: MIC (μM) E. coli Plank) it was 110 µM (≈ 32 µg/mL).
Regarding `NCCOc1ccsc1C(=O)Nc1ncc([N+](=O)[O-])s1` [VPC162125, 3-(2-Aminoethoxy)-N-(5-nitrothiazol-2-yl)thiophene-2-carboxamide hydrochloride], the “PFOR inhibition relative to nitazoxanide (=100)” value in test [1] came to 137%. Besides, the MIC in the test with C. jejuni (setting [11]) came to 11.4 µM; with H. pylori (setting [12]), 0.7 µM; in the test with MRSA (setting [13]), 91.2 µM; in the test on S. epidermidis (setting [14]) it was 91.2 µM; in the test with E. coli (24 h, read-out: MIC (μM) E. coli Plank) it was 91.2 µM.
In the case of `NCCCc1ccccc1C(=O)Nc1ncc([N+](=O)[O-])s1` [VPC162134, 2-(3-Aminopropyl)-N-(5-nitrothiazol-2-yl)benzamide hydrochloride], the “PFOR inhibition relative to nitazoxanide (=100)” value in [1] came out at 144%. In addition, the MIC was 17.5 µM with C. jejuni (setting [11]), 2.9 µM in the test on H. pylori (setting [12]), 93.3 µM with MRSA (setting [13]) and 93.3 µM in the test with S. epidermidis (setting [14]).
